Results published in paper PMC5353780, “A novel benzo-heterocyclic amine derivative N30 inhibits influenza virus replication by depression of Inosine-5’-Monophospate Dehydrogenase activity” (Virology Journal, 2017).
Counter-ions that a name gives are not always drawn. Like-named read-outs stand apart in the source and are kept apart here.

Tests used:
[1] = tested on: BV/shenzhen/155/2005; assay: CPE assay in MDCK cells; format: cell-based, influenza B virus; details: for IC50: Influenza B virus, CPE, MDCK cells; for SI: TC50/IC50
[2] = tested on: BY/fujianxinluo/54/2006; assay: CPE assay in MDCK cells; format: cell-based, influenza B virus; details: for IC50: Influenza B virus, CPE, MDCK cells; for SI: TC50/IC50
[3] = tested on: A/FortMonmouth/1/1947; assay: CPE assay in MDCK cells; format: cell-based, Influenza A virus (H1N1); details: for IC50: Influenza A virus, CPE, MDCK cells; for SI: TC50/IC50
[4] = tested on: A/wuhan/359/1995; assay: CPE assay in MDCK cells; format: cell-based, Influenza A virus (H3N2); details: for IC50: Influenza A virus, CPE, MDCK cells; for SI: TC50/IC50
[5] = in vivo; cited from earlier work
[6] = tested on: CVB6 (strain Schmitt); assay: CPE assay; format: cell-based, Coxsackie virus B; details: for IC50: CPE
[7] = tested on: IMPDH type II; assay: IMPDH type II expression by western blot in MDCK cells; format: cell-based, canine; details: 24 h treatment, Fig. 3a
[8] = In vivo toxicity, body weight in mice; set-up: species or system female Kun Ming mice; details: 100 mg/kg by oral administration in mice
Description: To determine the in vivo toxicity of N30 preliminarily, female Kun Ming mice were gavaged 100 mg/kg and 50 mg/kg N30 twice a day. Six mice enrolled in each group were gavaged with N30 or vehicle for continuous administration for 14 days, then weighted at day 0, 5, 10 and 14 respectively, shown in Table 5.

[9] = tested on: Vero cells; details: African green monkey, 48 h
[10] = tested on: EV71(BrCr); assay: CPE assay; format: cell-based, Human enterovirus 71; details: for IC50: Enterovirus A, EV71, CPE; for SI: TC50/IC50
[11] = tested on: CVB5 (strain Faulkner); assay: CPE assay; format: cell-based, Coxsackie virus B; details: for IC50: Enterovirus B, CVB5, CPE
[12] = tested on: CVB3 (strain Nancy); assay: CPE assay; format: cell-based, Coxsackie virus B; details: for IC50: Enterovirus B, CVB3, CPE
[13] = tested on: CVB4 (strain J.V.B.); assay: CPE assay; format: cell-based, Coxsackie virus B; details: for IC50: Enterovirus B, CVB4, CPE
[14] = tested on: CVB2 (strain Ohio-1); assay: CPE assay; format: cell-based, Coxsackie virus B; details: for IC50: Enterovirus B, CVB2, Ohio-1, CPE
[15] = tested on: IAV; details: in vitro, at low micromolar concentrations; cited from earlier work
[16] = tested on: IAV A/Fort Monmouth/1/1947 (H1N1); assay: IAV M2 protein and RNA expression in MDCK cells (western blot, qRT-PCR); format: cell-based, Influenza A virus (H1N1); details: 0.01 MOI, 24 h post-infection, Fig. 1c and d
Description: Fig. 1 Effects of N30 on IAV M2 protein and RNA expression in MDCK. a Chemical structure of N30. b The effect of N30 on viabilities of MRC-5, Vero, MDCK and Hep2 cells, which were measured by CCK. c The effect of N30 with different concentrations on IAV M2 protein and RNA expression. d The effect of N30 on IAV M2 protein and RNA expression compared with reference drugs. MDCK cells were infected with IAV A/Fort Monmouth/1/1947(H1N1) (0.01 multiplicity of infection [MOI, plaque-forming units (PFU)/cell]) for 2 hours, and treated with different concentrations of N30 or reference drugs for 24 h. Total mRNA and protein were extracted at 24 h post-infection, and analyzed by qRT-PCR and Western blotting respectively. […]
Cells were collected at 24 h post-infection and lysed in M-PER mammalian protein extraction reagent containing halt protease inhibitor cocktail (Thermo Fisher Scientific), sample proteins were subjected to SDS-PAGE and transferred to PVDF membrane (Millipore). After blocked with 5% milk, the membranes were incubated with antibodies against Influenza M2, β-actin (Santa Cruz), CVB3 VP1 (Millipore), IMPDH type II (Sigma-Aldrich), RSV M2 (Santa Cruz) and coronavirus (FIPV-70, Santa Cruz) respectively, then, the HRP-conjugated secondary antibodies were incubated and the signals were detected using an enhanced chemiluminescence (ECL) kit (GE Healthcare Life Sciences). […]

[17] = tested on: EV71(SZ98); assay: CPE assay; format: cell-based, Human enterovirus 71; details: for IC50: Enterovirus A, EV71, CPE; for SI: TC50/IC50
[18] = tested on: viral hemagglutinin; set-up: species or system Influenza A virus; details: maximum concentration 40 μM, 10-fold dilutions; Fig. 2b
Description: Briefly, the diluted IAV were mixed with diluted compounds in a U bottom 96-well plate. After incubation at 4 °C for 40 min, equal volume of 1.2% chicken erythrocyte suspension was added to each well. Then, the erythrocyte aggregation was evaluated by visual inspection after 40 min [17, 18].

[19] = tested on: MDCK cells; details: dog, 48 h
[20] = tested on: CVB1 (strain Conn-5); assay: CPE assay; format: cell-based, Coxsackie virus B; details: for IC50: Enterovirus B, CVB1, CPE
[21] = molecular target: T1, IMPDH type II (Homo sapiens, UniProt P12268); assay: Enzymatic assay of IMPDH type II; format: biochemical; details: after N30 treatment; Fig. 3b
T1 construct: purchased Sigma-Aldrich
Description: The enzymatic assay was employed to evaluate the inhibitory effect of N30 on the activity of IMPDH type II by following the increase in formation of nicotinamide-adenine dinucleotide (NADH), which absorbance was read at 340 nm on Enspire at 30 °C. The 200 μL assay buffer contained 1 M Tris/HCl (pH 8.8), 1 M KCl, 30 mM EDTA, 10 μL IMPDH type II (Sigma-Aldrich), 1 mM DTT and NAD (Sigma-Aldrich). The reaction was started after addition of IMP, with final concentrations was 1 mM [19].

[22] = tested on: NA of IAV A/FM1/1947; assay: NA inhibition assay (MUNANA); format: biochemical, Influenza A virus; details: Fig. 2a
[23] = tested on: RSV; format: cell-based, respiratory syncytial virus (long strain)
[24] = tested on: Vero cells; assay: Cytotoxicity test (CCK); details: 50% toxicity concentration
[25] = human, in vivo, cited from earlier work

Row | SMILES | IC50 [1] | IC50 [2] | IC50 [3] | IC50 [4] | SI [1] | IC50 [6] | IMPDH expression [7] | IC50 [10] | SI [10] | IC50 [11] | IC50 [12] | IC50 [13] | IC50 [14] | IC50 [17] | SI [17] | SI [2] | hemagglutination inhibition (aggregation of chicken erythrocytes) [18] | TC50 [19] | IC50 [20] | SI [3] | other results
1 | NC12CC3CC(CC(C3)C1)C2 [AH, amantadine hydrochloride] | > 200 µM | > 200 µM | 0.65 ± 0.59 µM | 15.6 ± 0.31 µM | – | – | – | – | – | – | – | – | – | – | – | – | – | – | – | – | –
2 | COc1c(C)c2c(c(O)c1C/C=C(\C)CCC(=O)OCCN1CCOCC1)C(=O)OC2 [MMF, mycophenolate mofetil] | – | – | – | – | – | – | – | – | – | – | – | – | – | – | – | – | – | – | – | – | side effects [5]: diarrhea, leucopenia, sepsis, and vomiting
3 | O=[N+]([O-])c1ccc(CNc2ccc3ncsc3c2)cc1 [N30, N-(4-nitrophenylmethyl) benzothiazole-6-amine] | 1.16 ± 0.69 µM | 0.7 ± 0.18 µM | 1.93 ± 0.16 µM | 1.31 ± 0.87 µM | 57.47 | 6.81 ± 1.89 µM | have not been lessened | 8.04 ± 3.77 µM | 11.14 | 2.54 ± 1.43 µM | 1.82 ± 2.76 µM | 10.4 ± 3.13 µM | 11.7 ± 2.94 µM | 10.6 ± 3.76 µM | 8.42 | 95.24 | could not inhibit the aggregation of chicken erythrocytes | 66.67 µM | 6.28 ± 1.61 µM | 34.54 | SI [6]: 13.15; acute toxicity [8]: little acute toxicity; TC50 [9]: 89.56 ± 4.25 µM; SI ([11]; TC50/IC50): 35.26; SI ([12]; TC50/IC50): 49.21; SI ([13]; TC50/IC50): 8.64; SI ([14]; TC50/IC50): 7.69; activity towards IAV [15]: potent activity; amounts of IAV M2 protein and RNA [16]: dosage dependent relationship; SI ([20]; TC50/IC50): 14.26; reduction of the enzymatic reaction rate of IMPDH [21]: 38.18%; effect on NA activity [22]: little inhibitory effect; expression of the viral proteins ([23]; 10 μM N30, RSV-infected Hep2 cells): almost completely inhibit; RSV M2 mRNA and protein expressions ([23]; RSV-infected Hep2 cells, 0.025 MOI, 24 h, Fig. 4b): markedly decreased; SI [4]: 50.89
4 | CCC(CC)O[C@@H]1C=C(C(=O)O)C[C@H](N)[C@H]1NC(C)=O [OC, oseltamivir carboxylate] | 1.02 ± 0.08 µM | 0.56 ± 0.02 µM | 0.25 ± 0.01 µM | 0.12 ± 0.01 µM | >49.02 | – | – | – | – | – | – | – | – | – | – | >89.28 | did not show the inhibitory effect | > 50 µM | – | >200 | effect on NA activity [22]: significantly reduce the activity of NA in a dose dependent manner; SI [4]: >416.67
5 | CCOC(=O)c1ccc(OCCC2CCN(c3ccc(C)nn3)CC2)cc1 [Pirodavir] | – | – | – | – | – | – | – | 0.16 µM | 203.56 | – | – | – | – | 0.27 ± 0.27 µM | 120.6 | – | – | – | – | – | TC50 ([24]; Tables 3 and 4, CCK, 48 h): 32.57 ± 0.55 µM
6 | NC(=O)c1ncn([C@@H]2O[C@H](CO)[C@@H](O)[C@H]2O)n1 [RBV, Ribavirin] | 1.7 ± 0.57 µM | 2.48 ± 0.53 µM | 1.64 ± 0.72 µM | 8.23 ± 6.31 µM | – | 4560 ± 2410 µM | no inhibition | – | – | 1200 ± 530 µM | 3130 ± 1210 µM | 2470 ± 1600 µM | 2270 ± 180 µM | – | – | – | did not show the inhibitory effect | – | 2370 ± 360 µM | – | TC50 ([24]; Table 3): >20000 µM; bilirubin values ([25]; po): elevated the bilirubin values; anemia [25]: transient anemia
